Values joined by “and” are separate entries in the source; they are usually repeats but may differ in a detail not shown here. Equal entries are not always repeated.
Conditions: Fluid (supercritical or subcritical phases), Buoyancy - hydrostatic balance with magnetic suspension - two sinkers

CCC [propane]
Conditions | mass density
369.83 K, 4284.6 kPa | 281.214 kg/m3 and 281.229 kg/m3 and 281.215 kg/m3
369.83 K, 4284.7 kPa | 281.219 kg/m3 and 281.22 kg/m3
369.83 K, 4985.9 kPa | 337.354 kg/m3 and 337.357 kg/m3
369.83 K, 4986 kPa | 337.358 kg/m3 and 337.357 kg/m3
369.83 K, 4986.1 kPa | 337.356 kg/m3 and 337.357 kg/m3
369.83 K, 8381.5 kPa | 391.64 kg/m3
369.83 K, 8382 kPa | 391.644 kg/m3 and 391.642 kg/m3 and 391.641 kg/m3
369.83 K, 8382.2 kPa | 391.644 kg/m3
369.83 K, 8382.4 kPa | 391.643 kg/m3
369.83 K, 8382.6 kPa | 391.644 kg/m3
369.85 K, 311.85 kPa | 4.5865 kg/m3 and 4.5866 kg/m3
369.85 K, 311.86 kPa | 4.5867 kg/m3
369.85 K, 554.46 kPa | 8.3301 kg/m3 and 8.3303 kg/m3
369.85 K, 927.78 kPa | 14.4328 kg/m3 and 14.4326 kg/m3
369.85 K, 927.79 kPa | 14.4329 kg/m3
369.85 K, 1387.4 kPa | 22.6395 kg/m3 and 22.6384 kg/m3 and 22.6393 kg/m3
369.85 K, 1387.5 kPa | 22.64 kg/m3 and 22.6401 kg/m3
369.85 K, 2120.4 kPa | 37.8404 kg/m3 [middle of 5 runs]
369.85 K, 2871.7 kPa | 57.8231 kg/m3
369.85 K, 2871.8 kPa | 57.8298 kg/m3 and 57.8251 kg/m3
369.85 K, 3827.6 kPa | 100.815 kg/m3 and 100.816 kg/m3
369.85 K, 3827.7 kPa | 100.817 kg/m3
369.85 K, 4188.1 kPa | 146.906 kg/m3
369.85 K, 4188.2 kPa | 146.91 kg/m3
369.85 K, 4188.3 kPa | 146.915 kg/m3 and 146.912 kg/m3
369.85 K, 4188.4 kPa | 146.917 kg/m3
369.85 K, 4241.5 kPa | 177.435 kg/m3
369.85 K, 4241.8 kPa | 177.526 kg/m3 and 177.58 kg/m3 and 177.506 kg/m3
369.85 K, 4241.9 kPa | 177.65 kg/m3
369.85 K, 4248.2 kPa | 218.49 kg/m3 and 218.749 kg/m3 and 220.705 kg/m3
369.85 K, 4248.3 kPa | 224.686 kg/m3 and 220.268 kg/m3
369.85 K, 4248.4 kPa | 235.513 kg/m3 and 235.434 kg/m3
369.85 K, 4248.6 kPa | 231.541 kg/m3 and 236.898 kg/m3
369.85 K, 4258.6 kPa | 265.216 kg/m3 and 265.238 kg/m3
369.85 K, 4258.7 kPa | 265.211 kg/m3
369.85 K, 4372.9 kPa | 299.086 kg/m3
369.85 K, 4373 kPa | 299.075 kg/m3
369.85 K, 4373.1 kPa | 299.089 kg/m3
369.85 K, 4373.2 kPa | 299.082 kg/m3
369.85 K, 5012.2 kPa | 338.098 kg/m3
369.85 K, 5012.3 kPa | 338.097 kg/m3
369.85 K, 5012.5 kPa | 338.099 kg/m3
369.85 K, 5012.6 kPa | 338.102 kg/m3
369.85 K, 5520.1 kPa | 352.211 kg/m3
369.85 K, 5520.4 kPa | 352.212 kg/m3
369.86 K, 554.46 kPa | 8.3303 kg/m3 and 8.3302 kg/m3
369.86 K, 927.79 kPa | 14.4327 kg/m3 and 14.4326 kg/m3
369.86 K, 4248.7 kPa | 234.526 kg/m3
369.86 K, 4258.8 kPa | 265.251 kg/m3 and 265.229 kg/m3
369.86 K, 5520.6 kPa | 352.209 kg/m3 and 352.21 kg/m3
369.93 K, 4252.7 kPa | 197.999 kg/m3 and 197.778 kg/m3
369.93 K, 4252.8 kPa | 198.048 kg/m3 [middle of 4 runs]
369.93 K, 4252.9 kPa | 197.901 kg/m3
369.93 K, 4253.8 kPa | 232.64 kg/m3
369.93 K, 4253.9 kPa | 232.539 kg/m3
369.93 K, 4254 kPa | 231.862 kg/m3 [middle of 5 runs]
369.93 K, 4255 kPa | 244.442 kg/m3 [middle of 4 runs]
369.93 K, 4255.1 kPa | 244.551 kg/m3 and 244.556 kg/m3
369.93 K, 4255.2 kPa | 244.584 kg/m3 and 244.7 kg/m3
369.95 K, 4248.2 kPa | 177.636 kg/m3
369.95 K, 4248.3 kPa | 177.67 kg/m3 and 177.631 kg/m3 and 177.707 kg/m3
369.95 K, 4248.4 kPa | 177.657 kg/m3
369.95 K, 4255.7 kPa | 214.994 kg/m3 and 214.812 kg/m3 and 213.928 kg/m3
369.95 K, 4255.8 kPa | 214.794 kg/m3 and 214.471 kg/m3
369.95 K, 4256.2 kPa | 231.389 kg/m3
369.95 K, 4256.3 kPa | 231.791 kg/m3 and 231.342 kg/m3
369.95 K, 4256.4 kPa | 233.445 kg/m3 and 231.817 kg/m3
369.95 K, 4268 kPa | 265.209 kg/m3 and 265.217 kg/m3 and 265.193 kg/m3
369.95 K, 4268.2 kPa | 265.233 kg/m3
369.96 K, 4268.2 kPa | 265.215 kg/m3
370.03 K, 4259.9 kPa | 197.023 kg/m3 and 197.111 kg/m3 and 197.064 kg/m3
370.03 K, 4260 kPa | 197.186 kg/m3 [middle of 4 runs]
370.03 K, 4260.1 kPa | 197.3 kg/m3
370.03 K, 4261.6 kPa | 225.827 kg/m3 and 225.421 kg/m3 and 225.472 kg/m3
370.03 K, 4261.7 kPa | 225.904 kg/m3 and 225.809 kg/m3 and 225.73 kg/m3
370.03 K, 4261.8 kPa | 225.954 kg/m3 and 225.938 kg/m3
370.03 K, 4263.3 kPa | 244.173 kg/m3 and 244.096 kg/m3
370.03 K, 4263.4 kPa | 244.149 kg/m3 and 244.214 kg/m3
370.03 K, 4263.5 kPa | 244.309 kg/m3 and 244.177 kg/m3 and 244.274 kg/m3
370.03 K, 4263.6 kPa | 244.294 kg/m3
370.05 K, 4254.8 kPa | 177.712 kg/m3 and 177.662 kg/m3
370.05 K, 4254.9 kPa | 177.695 kg/m3 and 177.74 kg/m3 and 177.673 kg/m3
370.05 K, 4263.2 kPa | 211.406 kg/m3 and 211.212 kg/m3
370.05 K, 4263.4 kPa | 211.466 kg/m3 and 212.306 kg/m3 and 211.429 kg/m3
370.05 K, 4264.2 kPa | 229.256 kg/m3 and 228.799 kg/m3
370.05 K, 4264.3 kPa | 229.262 kg/m3 and 229.062 kg/m3
370.05 K, 4277.5 kPa | 265.204 kg/m3 [middle of 4 runs]
370.05 K, 4277.6 kPa | 265.242 kg/m3
370.06 K, 4264.4 kPa | 229.28 kg/m3
370.32 K, 4281.1 kPa | 196.636 kg/m3
370.32 K, 4281.2 kPa | 196.743 kg/m3 and 196.797 kg/m3 and 196.727 kg/m3
370.32 K, 4281.3 kPa | 196.729 kg/m3
370.33 K, 4212.1 kPa | 146.689 kg/m3 and 146.681 kg/m3
370.33 K, 4212.2 kPa | 146.684 kg/m3 [middle of 5 runs]
370.33 K, 4281.2 kPa | 196.669 kg/m3
370.33 K, 4281.3 kPa | 197.033 kg/m3 and 196.772 kg/m3
370.33 K, 4284.6 kPa | 220.89 kg/m3
370.33 K, 4284.7 kPa | 220.777 kg/m3 and 220.874 kg/m3 and 220.88 kg/m3
370.33 K, 4284.8 kPa | 221.028 kg/m3 and 221.044 kg/m3 and 221.077 kg/m3
370.33 K, 4284.9 kPa | 221.146 kg/m3
370.33 K, 4288.5 kPa | 243.759 kg/m3 and 243.744 kg/m3 and 243.764 kg/m3
370.33 K, 4288.6 kPa | 243.866 kg/m3 [middle of 5 runs]
370.35 K, 4214.3 kPa | 147.029 kg/m3 [middle of 5 runs]
370.35 K, 4274.3 kPa | 177.77 kg/m3 and 177.777 kg/m3
370.35 K, 4274.4 kPa | 177.843 kg/m3 and 177.765 kg/m3 and 177.808 kg/m3
370.35 K, 4285.7 kPa | 209.496 kg/m3 [middle of 4 runs]
370.35 K, 4285.8 kPa | 209.659 kg/m3
370.35 K, 4287.8 kPa | 228.296 kg/m3
370.35 K, 4287.9 kPa | 227.176 kg/m3 and 227.342 kg/m3
370.35 K, 4288 kPa | 227.25 kg/m3
370.35 K, 4305.9 kPa | 265.204 kg/m3
370.35 K, 4306 kPa | 265.214 kg/m3 and 265.193 kg/m3
370.35 K, 4306.1 kPa | 265.222 kg/m3
370.36 K, 4288 kPa | 227.268 kg/m3
370.36 K, 4306.1 kPa | 265.199 kg/m3
370.82 K, 4238.2 kPa | 146.893 kg/m3
